Experiment: mn = molality of the nth substance listed, in mol/kg
Details: 298 K, Wilhelmi plate tensiometer

CCCCCCCC/C=C\CCCCCCCC(=O)[O-].[Na+] [sodium oleate] + O
Details	surface tension liquid-gas [mN/m]
m1 = 5e-06	62.8
m1 = 1e-05	58
m1 = 2e-05	51.8
m1 = 3e-05	51.2
m1 = 4e-05	50.7
m1 = 5e-05	49.9
m1 = 0.0001	42
m1 = 0.0003	32.9
m1 = 0.0005	29.4
m1 = 0.0009	26.6
m1 = 0.0013	25.6
m1 = 0.0015	25.4
m1 = 0.0018	25.1
m1 = 0.002	25.2
m1 = 0.003	25.1

CCCCCCCCCCCC(=O)[O-].[Na+] [sodium dodecanoate] + O
Details	surface tension liquid-gas [mN/m]
m1 = 0.001	64.1
m1 = 0.002	62.2
m1 = 0.003	57.6
m1 = 0.004	54.4
m1 = 0.005	54.5
m1 = 0.006	49.9
m1 = 0.007	45.8
m1 = 0.008	44.9
m1 = 0.009	44
m1 = 0.01	44.2
m1 = 0.0105	41.7
m1 = 0.011	41.6
m1 = 0.012	40.9
m1 = 0.013	37.4
m1 = 0.014	37.3
m1 = 0.015	37.9

CCCCCCCCCCCCP(=O)([O-])[O-].[Na+].[Na+] [sodium dodecylphosphonate] + O
Details	surface tension liquid-gas [mN/m]
m1 = 0.002	66.6
m1 = 0.004	58.5
m1 = 0.006	52.9
m1 = 0.008	53.5
m1 = 0.01	52.4
m1 = 0.012	49.6
m1 = 0.014	47.4
m1 = 0.016	44.4
m1 = 0.017	44
m1 = 0.0175	40.9
m1 = 0.018	40.1
m1 = 0.0185	39.4
m1 = 0.019	40.4
m1 = 0.02	39.3
m1 = 0.021	39.6
m1 = 0.025	38.2
m1 = 0.04	36.9
m1 = 0.05	39.3
